# Reference: patent publication US20250230193A1, “CYCLIC COMPOUND HAVING SELECTIVE KRAS INHIBITORY EFFECT ON HRAS AND NRAS” (CHUGAI SEIYAKU KABUSHIKI KAISHA, priority 2022, published 2025)
# Tests used:
# [1] = biological target: GDP-bound HRAS wild-type protein (Homo sapiens, UniProt P01112); assay: Binding to HRAS by surface plasmon resonance (SPR), Single Cycle Kinetics; settings: SPR, GDP-bound HRAS wild-type vs GDP-bound KRAS wild-type
# [2] = biological target: GDP-bound NRAS wild-type protein (Homo sapiens, UniProt P01111); assay: Binding to NRAS by surface plasmon resonance (SPR), Single Cycle Kinetics; settings: SPR, GDP-bound NRAS wild-type vs GDP-bound KRAS wild-type
# GDP-bound NRAS wild-type protein, sequence (P01111 whole entry): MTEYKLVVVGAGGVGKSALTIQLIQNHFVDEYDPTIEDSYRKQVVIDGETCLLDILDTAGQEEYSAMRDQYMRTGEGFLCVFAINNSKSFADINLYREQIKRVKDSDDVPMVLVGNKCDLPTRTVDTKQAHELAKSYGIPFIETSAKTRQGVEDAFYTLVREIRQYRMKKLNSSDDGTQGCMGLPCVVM
# GDP-bound HRAS wild-type protein, sequence (P01112 whole entry): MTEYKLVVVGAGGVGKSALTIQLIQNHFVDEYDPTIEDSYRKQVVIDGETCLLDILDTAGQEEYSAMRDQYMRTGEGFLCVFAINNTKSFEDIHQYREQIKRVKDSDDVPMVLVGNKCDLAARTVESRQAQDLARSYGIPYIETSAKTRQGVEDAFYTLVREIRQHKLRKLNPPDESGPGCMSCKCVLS
SMILES,HRAS/KRAS (ratio of KD value with respect to HRAS to KD value with respect to KRAS) [1],NRAS/KRAS (ratio of KD value with respect to NRAS to KD value with respect to KRAS) [2]
CCO[C@@H]1C[C@H]2C(=O)NC3(CC(C)(C)C3)C(=O)N(C)[C@@H](C(CC)CC)C(=O)N(C)[C@H](C(=O)N(C)C)CC(=O)N(C)[C@@H](COC)C(=O)N[C@@H]([C@@H](C)CC)C(=O)N(C)CC(=O)N(C)[C@H]3C/C=C\CCN(C3=O)[C@@H](Cc3ccc(C(F)(F)F)cc3)C(=O)N(C)CC(=O)N[C@@H](CCc3ccc(C(F)(F)F)c(Cl)c3)C(=O)N2C1 [PP2126],B (a compound having 3 or more and less than 10 is denoted as B),A (a compound having 10 or more and less than 20 is denoted as A)
CCO[C@@H]1C[C@H]2C(=O)NC3(CC(C)(C)C3)C(=O)N(C)[C@@H](C(CC)CC)C(=O)N(C)[C@H](C(=O)N(C)C)CC(=O)N(C)[C@@H](CC(C)C)C(=O)N[C@@H]([C@@H](C)CC)C(=O)N(C)CC(=O)N(C)[C@H]3C/C=C\CCN(C3=O)[C@@H](Cc3ccc(C(F)(F)F)cc3)C(=O)N(C)CC(=O)N[C@@H](CCc3cc(F)c(C(F)(F)F)c(F)c3)C(=O)N2C1 [PP2127],A (a compound having 10 or more and less than 20 is denoted as A),AA (a compound having 20 or more is denoted as AA)
CCO[C@@H]1C[C@H]2C(=O)NC3(CC(C)(C)C3)C(=O)N(C)[C@@H](C(CC)CC)C(=O)N(C)[C@H](C(=O)N3CCCC3)CC(=O)N(C)[C@@H](COC)C(=O)N[C@@H]([C@@H](C)CC)C(=O)N(C)CC(=O)N(C)[C@H]3C/C=C\CCN(C3=O)[C@@H](Cc3ccc(C(F)(F)F)cc3)C(=O)N(C)CC(=O)N[C@@H](CCc3ccc(C(F)(F)F)c(Cl)c3)C(=O)N2C1 [PP2128],A (a compound having 10 or more and less than 20 is denoted as A),AA (a compound having 20 or more is denoted as AA)
CCO[C@@H]1C[C@H]2C(=O)NC3(CC(C)(C)C3)C(=O)N(C)[C@@H](C(CC)CC)C(=O)N(C)[C@H](C(=O)N(C)C)CC(=O)N(C)[C@@H](CC(C)C)C(=O)N[C@@H]([C@@H](C)CC)C(=O)N(C)CC(=O)N(C)[C@H]3C/C=C\CCN(C3=O)[C@@H](Cc3ccc(C(F)(F)F)cc3)C(=O)N(C)CC(=O)N[C@@H](CCc3ccc(C(F)(F)F)c(Cl)c3)C(=O)N2C1 [PP2132],A (a compound having 10 or more and less than 20 is denoted as A),AA (a compound having 20 or more is denoted as AA)
CCO[C@@H]1C[C@H]2C(=O)NC3(CC(C)(C)C3)C(=O)N(C)[C@@H](C(CC)CC)C(=O)N(C)[C@H](C(=O)N(C)C)CC(=O)N(C)[C@@H](CC3CCC3)C(=O)N[C@@H]([C@@H](C)CC)C(=O)N(C)CC(=O)N(C)[C@H]3C/C=C\CCN(C3=O)[C@@H](Cc3ccc(C(F)(F)F)cc3)C(=O)N(C)CC(=O)N[C@@H](CCc3cc(F)c(C(F)(F)F)c(F)c3)C(=O)N2C1 [PP2133],A (a compound having 10 or more and less than 20 is denoted as A),AA (a compound having 20 or more is denoted as AA)
CCO[C@@H]1C[C@H]2C(=O)NC3(CC(C)(C)C3)C(=O)N(C)[C@@H](C(CC)CC)C(=O)N(C)[C@H](C(=O)N(C)C)CC(=O)N(C)[C@@H](C(C)C)C(=O)N[C@@H]([C@@H](C)CC)C(=O)N(C)CC(=O)N(C)[C@H]3C/C=C\CCN(C3=O)[C@@H](Cc3ccc(C(F)(F)F)cc3)C(=O)N(C)CC(=O)N[C@@H](CCc3cc(F)c(C(F)(F)F)c(F)c3)C(=O)N2C1 [PP2135],A (a compound having 10 or more and less than 20 is denoted as A),AA (a compound having 20 or more is denoted as AA)
CCO[C@@H]1C[C@H]2C(=O)NC3(CC(C)(C)C3)C(=O)N(C)[C@@H](C(CC)CC)C(=O)N(C)[C@H](C(=O)N(C)C)CC(=O)N(C)[C@@H](CC3CC3)C(=O)N[C@@H]([C@@H](C)CC)C(=O)N(C)CC(=O)N(C)[C@H]3C/C=C\CCN(C3=O)[C@@H](Cc3ccc(C)cc3)C(=O)N(C)CC(=O)N[C@@H](CCc3cc(F)c(C(F)(F)F)c(F)c3)C(=O)N2C1 [PP2137],A (a compound having 10 or more and less than 20 is denoted as A),A (a compound having 10 or more and less than 20 is denoted as A)
CCO[C@@H]1C[C@H]2C(=O)NC3(CC(C)(C)C3)C(=O)N(C)[C@@H](C(CC)CC)C(=O)N(C)[C@H](C(=O)N(C)C)CC(=O)N(C)[C@@H](CC3CCC3)C(=O)N[C@@H]([C@@H](C)CC)C(=O)N(C)CC(=O)N(C)[C@H]3C/C=C\CCN(C3=O)[C@@H](Cc3ccc(C(F)(F)F)cc3)C(=O)N(C)CC(=O)N[C@@H](CCc3ccc(C(F)(F)F)c(Cl)c3)C(=O)N2C1 [PP2138],A (a compound having 10 or more and less than 20 is denoted as A),A (a compound having 10 or more and less than 20 is denoted as A)
CCO[C@@H]1C[C@H]2C(=O)NC3(CC(C)(C)C3)C(=O)N(C)[C@@H](C(CC)CC)C(=O)N(C)[C@H](C(=O)N3CCCC3)CC(=O)N(C)[C@@H](COC)C(=O)N[C@@H]([C@@H](C)CC)C(=O)N(C)CC(=O)N(C)[C@H]3C/C=C\CCN(C3=O)[C@@H](Cc3ccc(C)cc3)C(=O)N(C)CC(=O)N[C@@H](CCc3cc(F)c(C(F)(F)F)c(F)c3)C(=O)N2C1 [PP2139],A (a compound having 10 or more and less than 20 is denoted as A),AA (a compound having 20 or more is denoted as AA)
CCO[C@@H]1C[C@H]2C(=O)NC3(CC(C)(C)C3)C(=O)N(C)[C@@H](C(CC)CC)C(=O)N(C)[C@H](C(=O)N(C)C)CC(=O)N(C)[C@@H](C(C)C)C(=O)N[C@@H]([C@@H](C)CC)C(=O)N(C)CC(=O)N(C)[C@H]3C/C=C\CCN(C3=O)[C@@H](Cc3ccc(C(F)(F)F)cc3)C(=O)N(C)CC(=O)N[C@@H](CCc3ccc(C(F)(F)F)c(Cl)c3)C(=O)N2C1 [PP2140],A (a compound having 10 or more and less than 20 is denoted as A),AA (a compound having 20 or more is denoted as AA)
CCO[C@@H]1C[C@H]2C(=O)NC3(CC(C)(C)C3)C(=O)N(C)[C@@H](C(CC)CC)C(=O)N(C)[C@H](C(=O)N(C)C)CC(=O)N(C)[C@@H](CC(C)C)C(=O)N[C@@H]([C@@H](C)CC)C(=O)N(C)CC(=O)N(C)[C@H]3C/C=C\CCN(C3=O)[C@@H](Cc3ccc(C)cc3)C(=O)N(C)CC(=O)N[C@@H](CCc3cc(F)c(C(F)(F)F)c(F)c3)C(=O)N2C1 [PP2141],A (a compound having 10 or more and less than 20 is denoted as A),A (a compound having 10 or more and less than 20 is denoted as A)
CCO[C@@H]1C[C@H]2C(=O)NC3(CC(C)(C)C3)C(=O)N(C)[C@@H](C(CC)CC)C(=O)N(C)[C@H](C(=O)N(C)C)CC(=O)N(C)[C@@H](CC3CC3)C(=O)N[C@@H]([C@@H](C)CC)C(=O)N(C)CC(=O)N(C)[C@H]3C/C=C\CCN(C3=O)[C@@H](Cc3ccc(C)cc3)C(=O)N(C)CC(=O)N[C@@H](CCc3ccc(C(F)(F)F)c(Cl)c3)C(=O)N2C1 [PP2142],A (a compound having 10 or more and less than 20 is denoted as A),AA (a compound having 20 or more is denoted as AA)
CCO[C@@H]1C[C@H]2C(=O)NC3(CC(C)(C)C3)C(=O)N(C)[C@@H](C(CC)CC)C(=O)N(C)[C@H](C(=O)N(C)C)CC(=O)N(C)[C@@H](C)C(=O)N[C@@H]([C@@H](C)CC)C(=O)N(C)CC(=O)N(C)[C@H]3C/C=C\CCN(C3=O)[C@@H](Cc3ccc(C)cc3)C(=O)N(C)CC(=O)N[C@@H](CCc3cc(F)c(C(F)(F)F)c(F)c3)C(=O)N2C1 [PP2143],A (a compound having 10 or more and less than 20 is denoted as A),A (a compound having 10 or more and less than 20 is denoted as A)
CCO[C@@H]1C[C@H]2C(=O)NC3(CC(C)(C)C3)C(=O)N(C)[C@@H](C(CC)CC)C(=O)N(C)[C@H](C(=O)N3CCCC3)CC(=O)N(C)[C@@H](COC)C(=O)N[C@@H]([C@@H](C)CC)C(=O)N(C)CC(=O)N(C)[C@H]3C/C=C\CCN(C3=O)[C@@H](Cc3ccc(C)cc3)C(=O)N(C)CC(=O)N[C@@H](CCc3ccc(C(F)(F)F)c(Cl)c3)C(=O)N2C1 [PP2144],A (a compound having 10 or more and less than 20 is denoted as A),AA (a compound having 20 or more is denoted as AA)
CCO[C@@H]1C[C@H]2C(=O)NC3(CC(C)(C)C3)C(=O)N(C)[C@@H](C(CC)CC)C(=O)N(C)[C@H](C(=O)N3CCCC3)CC(=O)N(C)[C@@H](C)C(=O)N[C@@H]([C@@H](C)CC)C(=O)N(C)CC(=O)N(C)[C@H]3C/C=C\CCN(C3=O)[C@@H](Cc3ccc(C)cc3)C(=O)N(C)CC(=O)N[C@@H](CCc3cc(F)c(C(F)(F)F)c(F)c3)C(=O)N2C1 [PP2145],A (a compound having 10 or more and less than 20 is denoted as A),A (a compound having 10 or more and less than 20 is denoted as A)
